Where two headings read alike, the source gives them in different places.
B1: PMSR3: human PMS2 related gene product (SEQ ID NO: 24) (protein, listed as Homo sapiens)
chain: MCPWRPRLGRRCMVSPREADLGPQKDTRLDLPRSPARAPREQNSLGEVDRRGPREQTRAPATAAPPRPLGSRGAEAAEPQEGLSATVSACFQEQQEMNTLQGPVSFKDVAVDFTQEEWRQLDPDEKIAYGDVMLENYSHLVSVGYDYHQAKHHHGVEVKEVEQGEEPWIMEGEFPCQHSPEPAKAIKPIDRKSVHQICSGPVVLSLSTAVKELVENSLDAGATNIDLKLKDYGVDLIEVSDNGCGVEEENFEGLISFSSETSHM
B2: PMS134: dominant negative human PMS2 truncated at codon 134; N-terminal 133 amino acids (SEQ ID NO: 21) (protein, listed as Homo sapiens)
chain: MKQLPAATVRLLSSSQIITSVVSVVKELIENSLDAGATSVDVKLENYGFDKIEVRDNGEGIKAVDAPVMAMKYYTSKINSHEDLENLTTYGFRGEALGSICCIAEVLITTRTAADNFSTQYVLDGSGHILSQK

What was measured:
Type in all cases: cell-based
[1] = test system: empty vector control cells
Description: (§1) T7-PMS134 cells and empty vector control cells were grown with IPTG for 48 hours and then diluted 1:50 in LB plus IPTG and increasing amounts of ethyl methane sulfonate (EMS) from 0, 1, 10, 50, 100, and 200 μM. 10 μL aliquots of culture (diluted in 300 μl LB) were plated out on LB agar plus ampicillin plates and grown overnight at 37 C. The next day plates were analyzed for cell viability as determined by colony formation. […] The 200 μM treatment was toxic for both lines.

T7-PMS134 BL21 cells = assay: EMS toxicity, cell viability by colony formation
Description: as §1

BL21 cells = assay: Kanamycin-resistance (hypermutability) assay in BL21; conditions: for KAN resistant cells: after 24 hr IPTG-induction; for KAN resistant clones: non-IPTG-induced conditions
Description: However, upon addition of the inducer IPTG, the cells express high-levels of T7 polymerase due to the IPTG-inducible element that drives expression of the polymerase that is resident within the genome of the BL21 cells (30). The BL21 cells are chloramphenicol resistant due to the plasmid that expresses lysozyme within the cell. To introduce the pT7-hPMS 134 or the pT7-hPMSR3 genes into BL21 cells, the cells were made competent by incubating the cells in ice cold 50 mM CaCl2 for 20 minutes, followed by concentrating the cells and adding super-coiled plasmid DNA as describe (Maniatis, T. et. al. Cold Spring Harbor Laboratory Press, Third Edition, 2001). Ampicillin resistant BL21 were selected on LB-agar plates [[…], 1.5% bactoagar, pH 7.0 (Difco)] plates containing 25 μg/ml chloramphenicol and 100 μg/ml ampicillin. The next day, bacterial colonies were picked and analyzed for vectors containing an intact pTACPMS134 or pTAC empty vector by restriction endonuclease digestion and sequence analysis.
Kanamycin-resistant assays using BL21 cells expressing the V5-tagged or untagged PMS134 or PMSR3 polypeptides were carried out as described above. BL21 bacterial cells that harbor the empty vector, pT7-PMS134 or pT7-PMSR3 were grown overnight in LB supplemented with 100 μg/ml ampicillin. The overnight cultures were diluted 1:100 into fresh ampicillin containing medium and grown for 2.5 hours at 37° C. with continuous shaking. When the cells reached an optical density (OD) of 0.6, measured at 600 nm, IPTG was added to each culture to a final concentration of 0.5 mM. Cells were incubated for 24, and 48 hours; at those time points cells were removed for SDS-PAGE analysis and plating (see above). BL21/pT7 (empty vector), BL21/pT7-PMS134, and BL21/pT7-R3 cells were plated onto LB plates, LB plates that contained 100 ug/ml ampicillin, and plates that contain 50 ug/ml Kanamycin. The equivalent of 1×10^7 cells/plate were spread onto the plates. BL21 cells that harbor the empty vector are capable of growth on LB plates as well as LB plates that contain 100 ug/ml ampicillin; that is as expected since the pT7 expression vector renders the cells ampicillin resistant. The vector only control is not capable of growth on Kanamycin.

[2] = test system: kanamycin resistant pT7-PMS134 and pT7-PMSR3 colonies; assay: Genetic stability of kanamycin resistance (revertants)
Description: As described in EXAMPLE 2 and 3, manipulation of the MMR pathway in microbes results in alterations within the host genome and the ability to select for a novel output traits. It is important that the mutations introduced as a result of defective MMR is genetically stable and passed on to daughter cells once a desired output pathway is established. To determine the genetic stability of mutations introduced into the microbial genome the following experiment was performed. Five independent colonies from pT7-PMS134 and pT7-PMSR3 that are kanamycin resistance were grown overnight from an isolated colony in 5 ml of LB. Next, 1 μL of the overnight culture from these cultures were inoculated into another 5 mL of LB and grown overnight to saturation. Under these growth conditions the microbial cells have divided over 20 generations. Therefore, if the new output trait generated by alteration of MMR is unstable, the cells should “revert” back from kanamycin resistance to kanamycin sensitivity. Cells were plated onto LB plates and incubated overnight at 37° C. Next, the colonies (about 1,000/plate) were replica plated to LB, LB^amp100, and LB^kan50 plates and incubated at 37° C. overnight. […] Extended culturing of cells and replica plating found no reversions of KAN resistance in cultures grown in the absence of IPTG, which produce no PMS134 as determined by western blot (data not shown).

Molecule	colony number ([1]; 1 uM EMS) [colonies]	colony number ([1]; 10 uM EMS) [colonies]	number of control cells ([1]; 50 μM EMS)	number of control cells ([1]; 100 μM EMS)	toxicity (in words) ([1]; 200 μM EMS)	colony number (T7-PMS134 BL21 cells; 1 uM EMS) [colonies]	colony number (T7-PMS134 BL21 cells; 10 uM EMS) [colonies]	colony number (in words) (T7-PMS134 BL21 cells; 50 μM EMS)	reduction in colony number (T7-PMS134 BL21 cells; 100 μM EMS) [fold]	toxicity (in words) (T7-PMS134 BL21 cells; 200 μM EMS)	KAN resistant cells (BL21 cells)	KAN resistant clones (BL21 cells)	revertants of KAN resistance ([2]; continually grown in IPTG, out of 1200)	loss of KAN resistant clones ([2]; grown in the absence of IPTG)
CCOS(C)(=O)=O [EMS, ethyl methane sulfonate]	> 1000	> 1000	30	0	toxic	> 1000	> 1000	No difference	3	toxic				
B1											significant number	failed to produce any KAN resistant clones		
B2											significant number	failed to produce any KAN resistant clones	5	No loss
